Reference: US11078216B2, “Bisaryl amides as NRF2 activators” (GLAXOSMITHKLINE INTELLECTUAL PROPERTY DEVELOPMENT LIMITED, priority 2016, dated 2021)

The compounds below were run on NRF2 (NQO1 activity as marker for NRF2 activation), BEAS-2B cells (assay: BEAS-2B NQO1 MTT Assay). Conditions: Homo sapiens, EC50 of NQO1 specific activity induction, 48 hours incubation, read-out: EC50.
Type: cell-based
Procedure, shortened: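 As a marker of NRF2 activation, NQO1 specific activity was read from the rate of absorbance change at 570 nm in MTT cocktail over 30 minutes. Lysates came from BEAS-2B cells treated for 48 hours at 37° C, and EC50 was derived by 3-parameter fitting.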

Structure (SMILES) | EC50
CC[C@@H]1CN(Cc2cc([C@@H](c3ccc4c(nnn4CC)c3C)C(C)(C)C(=O)Nc3cnc(CNC(=O)OC(C)(C)C)nc3)ccc2C)S(=O)(=O)c2ccccc2O1 [Example 188, tert-Butyl ((5-((S)-3-(3-(((R)-4-ethyl-1,1-dioxido-3,4-dihydro-2H-benzo[b][1,4,5]oxathiazepin-2-yl)methyl)-4-methylphenyl)-3-(1-ethyl-4-methyl-1H-benzo[d][1,2,3]triazol-5-yl)-2,2-dimethylpropanamido)pyrimidin-2-yl)methyl)carbamate] | 10 to 100 nM
CC[C@@H]1CN(Cc2cc([C@@H](c3ccc4c(nnn4CC)c3C)C(C)(C)C(=O)Nc3cnc(C(=O)N(C)C)nc3)ccc2C)S(=O)(=O)c2ccccc2O1 [Example 189, 5-((S)-3-(3-(((R)-4-Ethyl-1,1-dioxido-3,4-dihydro-2H-benzo[b][1,4,5]oxathiazepin-2-yl)methyl)-4-methylphenyl)-3-(1-ethyl-4-methyl-1H-benzo[d][1,2,3]triazol-5-yl)-2,2-dimethylpropanamido)-N,N-dimethylpyrimidine-2-carboxamide] | 100 to 1000 nM
CC[C@@H]1CN(Cc2cc([C@@H](c3ccc4c(nnn4CC)c3C)C(C)(C)C(=O)Nc3cnc(OCC(=O)OC)nc3)ccc2C)S(=O)(=O)c2ccccc2O1 [Example 190, Methyl 2-((5-((S)-3-(3-(((R)-4-ethyl-1,1-dioxido-3,4-dihydro-2H-benzo[b][1,4,5]oxathiazepin-2-yl)methyl)-4-methylphenyl)-3-(1-ethyl-4-methyl-1H-benzo[d][1,2,3]triazol-5-yl)-2,2-dimethylpropanamido)pyrimidin-2-yl)oxy)acetate] | 100 to 1000 nM
CC[C@@H]1CN(Cc2cc([C@@H](c3ccc4c(nnn4CC)c3C)C(C)(C)C(=O)Nc3cnc(OCCNC(=O)OC(C)(C)C)nc3)ccc2C)S(=O)(=O)c2ccccc2O1 [Example 191, tert-Butyl (2-((5-((S)-3-(3-(((R)-4-ethyl-1,1-dioxido-3,4-dihydro-2H-benzo[b]-[1,4,5]oxathiazepin-2-yl)methyl)-4-methylphenyl)-3-(1-ethyl-4-methyl-1H-benzo[d][1,2,3]triazol-5-yl)-2,2-dimethylpropanamido)pyrimidin-2-yl)oxy)-ethyl)carbamate] | 10 to 100 nM
CC[C@@H]1CN(Cc2cc([C@@H](c3ccc4c(nnn4CC)c3C)C(C)(C)C(=O)Nc3cnc(OCCOC(C)(C)C)nc3)ccc2C)S(=O)(=O)c2ccccc2O1 [Example 192, (S)-N-(2-(2-(tert-Butoxy)ethoxy)pyrimidin-5-yl)-3-(3-(((R)-4-ethyl-1,1-dioxido-3,4-dihydro-2H-benzo[b][1,4,5]oxathiazepin-2-yl)methyl)-4-methylphenyl)-3-(1-ethyl-4-methyl-1H-benzo[d][1,2,3]triazol-5-yl)-2,2-dimethylpropanamide] | 10 to 100 nM
CC[C@@H]1CN(Cc2cc([C@@H](c3ccc4c(nnn4CC)c3C)C(C)(C)C(=O)Nc3cnc(OCCOC)nc3)ccc2C)S(=O)(=O)c2ccccc2O1 [Example 193, (S)-3-(3-(((R)-4-Ethyl-1,1-dioxido-3,4-dihydro-2H-benzo[b][1,4,5]oxathiazepin-2-yl)methyl)-4-methylphenyl)-3-(1-ethyl-4-methyl-1H-benzo[d][1,2,3]triazol-5-yl)-N-(2-(2-methoxyethoxy)pyrimidin-5-yl)-2,2-dimethylpropanamide] | 1 to 10 nM
CC[C@@H]1CN(Cc2cc([C@@H](c3ccc4c(nnn4CC)c3C)C(C)(C)C(=O)Nc3cnc(CO)nc3)ccc2C)S(=O)(=O)c2ccccc2O1 [Example 194, (S)-3-(3-(((R)-4-Ethyl-1,1-dioxido-3,4-dihydro-2H-benzo[b][1,4,5]oxathiazepin-2-yl)methyl)-4-methylphenyl)-3-(1-ethyl-4-methyl-1H-benzo[d][1,2,3]triazol-5-yl)-N-(2-(hydroxymethyl)pyrimidin-5-yl)-2,2-dimethylpropanamide] | 10 to 100 nM
CC[C@@H]1CN(Cc2cc([C@@H](c3ccc4c(nnn4CC)c3C)C(C)(C)C(=O)Nc3cnc(C(=O)O)nc3)ccc2C)S(=O)(=O)c2ccccc2O1 [Example 195, 5-((S)-3-(3-(((R)-4-Ethyl-1,1-dioxido-3,4-dihydro-2H-benzo[b][1,4,5]oxathiazepin-2-yl)methyl)-4-methylphenyl)-3-(1-ethyl-4-methyl-1H-benzo[d][1,2,3]triazol-5-yl)-2,2-dimethylpropanamido)pyrimidine-2-carboxylic Acid] | 10 to 100 nM
CC[C@@H]1CN(Cc2cc([C@@H](c3ccc4c(nnn4CC)c3C)C(C)(C)C(=O)Nc3cnc(CN)nc3)ccc2C)S(=O)(=O)c2ccccc2O1 [Example 196, (S)—N-(2-(Aminomethyl)pyrimidin-5-yl)-3-(3-(((R)-4-ethyl-1,1-dioxido-3,4-dihydro-2H-benzo[b][1,4,5]oxathiazepin-2-yl)methyl)-4-methylphenyl)-3-(1-ethyl-4-methyl-1H-benzo[d][1,2,3]triazol-5-yl)-2,2-dimethylpropanamide] | 100 to 1000 nM
CC[C@@H]1CN(Cc2cc([C@@H](c3ccc4c(nnn4CC)c3C)C(C)(C)C(=O)Nc3cnc(OCC(=O)O)nc3)ccc2C)S(=O)(=O)c2ccccc2O1 [Example 197, 2-((5-((S)-3-(3-(((R)-4-Ethyl-1,1-dioxido-3,4-dihydro-2H-benzo[b][1,4,5]oxathiazepin-2-yl)methyl)-4-methylphenyl)-3-(1-ethyl-4-methyl-1H-benzo[d][1,2,3]triazol-5-yl)-2,2-dimethylpropanamido)pyrimidin-2-yl)oxy)acetic Acid] | 10 to 100 nM
CC[C@@H]1CN(Cc2cc([C@@H](c3ccc4c(nnn4CC)c3C)C(C)(C)C(=O)Nc3cnc(OCCN)nc3)ccc2C)S(=O)(=O)c2ccccc2O1 [Example 198, (S)—N-(2-(2-Aminoethoxy)pyrimidin-5-yl)-3-(3-(((R)-4-ethyl-1,1-dioxido-3,4-dihydro-2H-benzo[b][1,4,5]oxathiazepin-2-yl)methyl)-4-methylphenyl)-3-(1-ethyl-4-methyl-1H-benzo[d][1,2,3]triazol-5-yl)-2,2-dimethylpropanamide] | 10 to 100 nM
CC[C@@H]1CN(Cc2cc([C@@H](c3ccc4c(nnn4CC)c3C)C(C)(C)C(=O)Nc3cnc(OCCO)nc3)ccc2C)S(=O)(=O)c2ccccc2O1 [Example 199, (S)-3-(3-(((R)-4-Ethyl-1,1-dioxido-3,4-dihydro-2H-benzo[b][1,4,5]oxathiazepin-2-yl)methyl)-4-methylphenyl)-3-(1-ethyl-4-methyl-1H-benzo[d][1,2,3]triazol-5-yl)-N-(2-(2-hydroxyethoxy)pyrimidin-5-yl)-2,2-dimethylpropanamide] | 10 to 100 nM
CC[C@@H]1CN(Cc2cc([C@@H](c3ccc4c(nnn4CC)c3C)C(C)(C)C(=O)NCC(=O)O)ccc2C)S(=O)(=O)c2ccccc2O1 [Example 200, 2-((S)-3-(3-(((R)-4-ethyl-1,1-dioxido-3,4-dihydro-2H-benzo[b][1,4,5]oxathiazepin-2-yl)methyl)-4-methylphenyl)-3-(1-ethyl-4-methyl-1H-benzo[d][1,2,3]triazol-5-yl)-2,2-dimethylpropanamido)acetate] | 10 to 100 nM
CC[C@@H]1CN(Cc2cc([C@@H](c3ccc4c(nnn4CC)c3C)C(C)(C)C(=O)NCCC(=O)O)ccc2C)S(=O)(=O)c2ccccc2O1 [Example 201, 3-((S)-3-(3-(((R)-4-ethyl-1,1-dioxido-3,4-dihydro-2H-benzo[b][1,4,5]oxathiazepin-2-yl)methyl)-4-methylphenyl)-3-(1-ethyl-4-methyl-1H-benzo[d][1,2,3]triazol-5-yl)-2,2-dimethylpropanamido)propanoic acid] | 100 to 1000 nM
